Laboratory results as given in US20100021541A1, “Microparticulate form of a Tetrahydropyridine derivative” (SANOFI-AVENTIS, priority 1996, published 2010).

Columns and labels:
[1] = Preclinical trials: animal pharmacology, toxicology and pharmacokinetic studies; set-up: species or system animals; settings: in vivo
CACO-2 monolayer = CACO-2 monolayer model, in vitro absorption (dissolution and permeability); format: in vitro ADME; settings: Hanks' solution supplemented with 10% of fetal calf serum and taurocholic acid
Method: A study concerning the determination of the in vitro absorption of the microparticles according to the present invention was carried out using the CACO-2 monolayer model.

[2] = Clinical trials on healthy volunteers evaluating the effect of food on oral absorption; format: in vivo; settings: for absorption with a meal versus on an empty stomach: oral, area under the curve of plasma SR 57746 concentrations; for required dose relative to the product of Example 5 to obtain the same absorption: absorption = area under the curve of plasma SR 57746 concentrations
From the text: The results obtained in vitro were confirmed in vivo by comparing the observations made in two clinical trials on healthy volunteers, the first trial evaluating the effect of food on the oral absorption of the SR 57746 A obtained according to EP 0 101 381, and the second trial evaluating the effect of food on the oral absorption of the SR 57746 A of Example 5 below. In both the trials, the criterion for evaluation of the absorption was the area under the curve of the plasma SR 57746 concentrations as a function of time.

[3] = Phase I clinical trials on healthy volunteers, oral administration; format: in vivo; settings: administered orally
From the text: EP 0 101 381 describes SR 57746 in the form of the hydrochloride, hereafter called SR 57746 A, and this salt was used in preclinical and clinical trials on healthy volunteers (Phase I). According to said document, SR 57746 is isolated by crystallization from ethanol, especially absolute ethanol.

[4] = tested on: amyotrophic lateral sclerosis; settings: 2 mg/day; cited from earlier work

FC(F)(F)c1cccc(C2=CCN(CCc3ccc4ccccc4c3)CC2)c1 [SR 57746, 1-[2-(2-Naphthyl)ethyl]-4-(3-trifluoromethylphenyl)-1,2,3,6-tetrahydropyridine]
activity and behavior in animal pharmacology and toxicology tests [1]: constant activity and behavior | pharmacokinetic studies on animals [1]: constant and reproducible results

Cl.FC(F)(F)c1cccc(C2=CCN(CCc3ccc4ccccc4c3)CC2)c1 [Example 5]
dissolution and permeability (CACO-2 monolayer): rendered uniform | absorption with a meal versus on an empty stomach [2]: the absorption is the same

Cl.FC(F)(F)c1cccc(C2=CCN(CCc3ccc4ccccc4c3)CC2)c1 [1-[2-(2-naphthyl)ethyl]-4-(3-trifluoromethylphenyl)-1,2,3,6-tetrahydropyridine hydrochloride]
required dose relative to the product of Example 5 to obtain the same absorption ([2]; administered on an empty stomach): about nine times greater | required dose relative to the product of Example 5 to obtain the same absorption ([2]; administered with a meal): three to four times greater | absorption with a meal versus on an empty stomach ([2]; hydrochloride): two to three times greater

Cl.FC(F)(F)c1cccc(C2=CCN(CCc3ccc4ccccc4c3)CC2)c1 [SR 57746 A, 1-[2-(2-naphthyl)ethyl]-4-(3-trifluoromethylphenyl)-1,2,3,6-tetrahydropyridine hydrochloride]
variability in the plasma concentrations and the pharmacodynamic effects [3]: high variability | clinical outcome in amyotrophic lateral sclerosis [4]: proved promising
